Measurements: ChEMBL document CHEMBL1201862, “PubChem BioAssay data set” (2004)
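Step 1: Grow cells in 96-well plates. Step 2: Expose to compound for 48 hours at 5 concentrations. Step 3: Interpolate endpoints linearly; if unreached, use highest concentration. GI50 marks 50% less growth.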 Active and inactive are the calls of the source. Rule as the data show it: active = GI50 up to about 1.1 µM and inactive = higher.

Experiments:
Experiment in all cases: NCI anticancer screen, dose series, 48 h
SR = test system: SR
ACHN = test system: ACHN
HCT-15 = test system: HCT-15
EKVX = test system: EKVX
OVCAR-8 = test system: OVCAR-8
SK-MEL-5 = test system: SK-MEL-5
SF-268 = test system: SF-268
RPMI-8226 = test system: RPMI-8226
MDA-N = test system: MDA-N
KM12 = test system: KM12
OVCAR-4 = test system: OVCAR-4
K562 = test system: K562
HT-29 = test system: HT-29
SK-MEL-28 = test system: SK-MEL-28
UACC-62 = test system: UACC-62
MOLT-4 = test system: MOLT-4
NCI-H226 = test system: NCI-H226
OVCAR-5 = test system: OVCAR-5
PC-3 = test system: PC-3
HL-60 = test system: HL-60

Row | SMILES | GI50 (SR) | GI50 (ACHN) | GI50 (HCT-15) [µM] | GI50 (EKVX) | GI50 (OVCAR-8) | GI50 (SK-MEL-5) | GI50 (SF-268) | GI50 (RPMI-8226) | GI50 (MDA-N) | GI50 (KM12) | GI50 (OVCAR-4) | GI50 (K562) | GI50 (HT-29) | GI50 (SK-MEL-28) | GI50 (UACC-62) | GI50 (MOLT-4) | GI50 (NCI-H226) | GI50 (OVCAR-5) | GI50 (PC-3) | GI50 (HL-60)
1 | CC(C)(O)CCc1ccc(O)c2c(=O)c3c(O)c4c(cc3oc12)O[C@H]1OC=C[C@@]41O [AUSTOCYSTIN D] | 1.23 µM (inactive) | < 0.01 µM (active) | < 0.01 | 0.255 µM (active) | < 0.01 µM (active) | 0.0102 µM (active) | 0.056 µM (active) | 0.475 µM (active) | < 0.01 µM (active) | < 0.01 µM (active) | < 0.01 µM (active) | 20 µM (inactive) | 1.24 µM (inactive) | 0.286 µM (active) | < 0.01 µM (active) | < 0.0106 µM (active) | < 0.01 µM (active) | 0.0615 µM (active) | 0.119 µM (active) | 
2 | COC(=O)[C@@]12CCCC(=O)[C@@H]1[C@H]1CCC[C@H]12 | > 100 µM (inactive) | > 100 µM (inactive) | > 100 | > 100 µM (inactive) | > 100 µM (inactive) | > 100 µM (inactive) | > 100 µM (inactive) | > 100 µM (inactive) | > 100 µM (inactive) | > 100 µM (inactive) | > 100 µM (inactive) | > 100 µM (inactive) | > 100 µM (inactive) | > 100 µM (inactive) | > 100 µM (inactive) | > 100 µM (inactive) | > 100 µM (inactive) | > 100 µM (inactive) | > 100 µM (inactive) | 
3 | COc1ccc2c(c1)OCC1Cc3cccc(OC)c3OC21 (stereo not drawn) | 59.7 µM (inactive) |  | 48 | 52.2 µM (inactive) | 45.8 µM (inactive) | 17.7 µM (inactive) | > 100 µM (inactive) | 36.9 µM (inactive) | 50.5 µM (inactive) | 65 µM (inactive) |  |  | 72.8 µM (inactive) |  | 71.1 µM (inactive) | 28 µM (inactive) | 67.3 µM (inactive) | > 100 µM (inactive) | 35.6 µM (inactive) | 
4 | Clc1ccc(CSCCc2ccncc2)cc1Cl |  | 21.7 µM (inactive) | 22.9 | 20.4 µM (inactive) | 19.7 µM (inactive) | 16.3 µM (inactive) | 21.9 µM (inactive) | 14.6 µM (inactive) | 20.2 µM (inactive) | 21.2 µM (inactive) | 23.1 µM (inactive) | 19.3 µM (inactive) | 15.7 µM (inactive) | 22.7 µM (inactive) | 15.3 µM (inactive) | 15.8 µM (inactive) | 22 µM (inactive) | 23.3 µM (inactive) | 21.2 µM (inactive) | 17 µM (inactive)
5 | O=C1/C(=C/c2c(Cl)[nH]c3ccccc23)c2ccccc2N1c1ccccc1 | 3.64 µM (inactive) | 7.01 µM (inactive) | 3.14 | 3.16 µM (inactive) | 4.35 µM (inactive) | 2.89 µM (inactive) | 5.52 µM (inactive) | 2.92 µM (inactive) | 1.85 µM (inactive) | 3.86 µM (inactive) |  | 4.1 µM (inactive) | 3.53 µM (inactive) | 10.4 µM (inactive) | 5.65 µM (inactive) | 4.22 µM (inactive) |  | 12.9 µM (inactive) | 4.28 µM (inactive) | 3.01 µM (inactive)
6 | CS(=O)(=O)Nc1ccc(N2Cc3c[nH]c4ccc5nccc2c5c34)cc1 |  | 28.6 µM (inactive) | > 100 | 44.7 µM (inactive) | 13.7 µM (inactive) | 14.7 µM (inactive) |  | 20.3 µM (inactive) | 15.7 µM (inactive) | 17.6 µM (inactive) | 14 µM (inactive) | 11.4 µM (inactive) | 25.5 µM (inactive) | 18.9 µM (inactive) | 16.3 µM (inactive) | 2.72 µM (inactive) | 15.4 µM (inactive) | 22.8 µM (inactive) | 16.1 µM (inactive) | 29 µM (inactive)
7 | Brc1ccc(/N=C/C=C(\Nc2ccc(Br)cc2)C23CC4CC(CC(C4)C2)C3)cc1 |  | 11.1 µM (inactive) | 6.34 | 18.8 µM (inactive) | 19.4 µM (inactive) | 9.33 µM (inactive) | 10.2 µM (inactive) | 14.7 µM (inactive) | 12.4 µM (inactive) | 12.7 µM (inactive) | 12.7 µM (inactive) | 4.5 µM (inactive) | 18 µM (inactive) | 18.5 µM (inactive) | 1.17 µM (inactive) | 6.07 µM (inactive) | 97.3 µM (inactive) | 14.7 µM (inactive) | 16.1 µM (inactive) | 2.95 µM (inactive)
8 | CCCCN(CCCC)CCC(O)c1cc(-c2ccc(C(F)(F)F)cc2)nc(-c2ccc(C(F)(F)F)cc2)c1 (stereo not drawn) | > 100 µM (inactive) | > 100 µM (inactive) | > 100 | > 100 µM (inactive) | > 100 µM (inactive) |  | > 100 µM (inactive) | > 100 µM (inactive) | > 100 µM (inactive) |  | > 100 µM (inactive) | > 100 µM (inactive) | > 100 µM (inactive) | > 100 µM (inactive) | > 100 µM (inactive) | > 100 µM (inactive) |  | > 100 µM (inactive) | > 100 µM (inactive) | > 100 µM (inactive)
9 | COc1ccc(CNc2nc(NCc3ccc(OC)cc3)nc(NC(C)C)n2)cc1 | 3.84 µM (inactive) | 8.02 µM (inactive) | 4.12 | 25 µM (inactive) | 13.1 µM (inactive) | 4.85 µM (inactive) | 9.02 µM (inactive) | 1.94 µM (inactive) | 2.69 µM (inactive) | 5.07 µM (inactive) | 20.3 µM (inactive) | 6.98 µM (inactive) | 5.41 µM (inactive) | 46.8 µM (inactive) | 4.28 µM (inactive) | 42.7 µM (inactive) |  | 20.2 µM (inactive) | 3.3 µM (inactive) | 4.08 µM (inactive)
10 | Cc1cc(NCCCCCCCCCC[n+]2c(C)cc(N)c3ccccc32)c2ccccc2n1 |  | 2.31 µM (inactive) | 3.95 |  | 0.875 µM (active) | 0.112 µM (active) | 1.43 µM (inactive) | 0.029 µM (active) | 1.04 µM (active) | 0.2 µM (active) | 1.42 µM (inactive) | 0.0409 µM (active) |  | 1.47 µM (inactive) | 1.16 µM (inactive) | 0.322 µM (active) | 2.67 µM (inactive) | 4.2 µM (inactive) | 0.188 µM (active) | 0.0721 µM (active)
11 | Cc1cccc(Cn2c3c(c4cc(O)ccc42)C(=O)c2ccccc2C3=O)c1 | 14.2 µM (inactive) | 13.3 µM (inactive) | 54.7 | 3.95 µM (inactive) | 5.57 µM (inactive) | 18.3 µM (inactive) | 36.6 µM (inactive) | 5.92 µM (inactive) | 68.4 µM (inactive) | 41.2 µM (inactive) | 1.88 µM (inactive) | > 100 µM (inactive) | > 58.5 µM (inactive) | > 39.6 µM (inactive) | 11.1 µM (inactive) | > 83.6 µM (inactive) | 15.7 µM (inactive) |  | 6.27 µM (inactive) | 
12 | COc1ccc2nc(-c3ccccc3)c(=O)[nH]c2c1 | > 100 µM (inactive) | > 100 µM (inactive) | > 100 | > 100 µM (inactive) | > 100 µM (inactive) | > 100 µM (inactive) | > 100 µM (inactive) | > 100 µM (inactive) | > 100 µM (inactive) |  |  | > 100 µM (inactive) | > 100 µM (inactive) | > 100 µM (inactive) | > 100 µM (inactive) | > 100 µM (inactive) | > 100 µM (inactive) | > 100 µM (inactive) | > 100 µM (inactive) | > 100 µM (inactive)
13 | CCCCc1cc2c(cc1O)CCC1C2CC[C@@]2(C)C1CC[C@@H]2O (stereo partly drawn) | 21.4 µM (inactive) | 16.2 µM (inactive) | 23.8 | 14.8 µM (inactive) | 15.3 µM (inactive) | 20.8 µM (inactive) | 29.6 µM (inactive) | 5.14 µM (inactive) | 23.4 µM (inactive) | 12.3 µM (inactive) | 20.4 µM (inactive) | 9.38 µM (inactive) | 23.2 µM (inactive) | 23 µM (inactive) | 11.6 µM (inactive) | 11.7 µM (inactive) | 16.9 µM (inactive) | 17.7 µM (inactive) | 12.4 µM (inactive) | 
14 | Cc1cc2ncc3c(=O)n(NS(=O)(=O)c4ccc(N)cc4)ccc3n2n1 |  | > 100 µM (inactive) | > 100 | > 100 µM (inactive) | > 100 µM (inactive) | > 100 µM (inactive) | > 100 µM (inactive) |  | > 100 µM (inactive) | > 100 µM (inactive) | > 100 µM (inactive) |  | > 100 µM (inactive) | > 100 µM (inactive) | > 100 µM (inactive) | > 100 µM (inactive) | > 100 µM (inactive) | > 100 µM (inactive) | > 100 µM (inactive) | > 100 µM (inactive)
15 | CCO[C@H]1C[C@@H](c2ccccc2)[C@]2(C)C[C@H](C(=O)OC)ON2O1 |  | > 100 µM (inactive) | > 100 | > 100 µM (inactive) | > 100 µM (inactive) | > 100 µM (inactive) | > 100 µM (inactive) | > 100 µM (inactive) | > 100 µM (inactive) | > 100 µM (inactive) | > 100 µM (inactive) | > 100 µM (inactive) | > 100 µM (inactive) | > 100 µM (inactive) | > 100 µM (inactive) | > 100 µM (inactive) | > 100 µM (inactive) | > 100 µM (inactive) | > 100 µM (inactive) | > 100 µM (inactive)
16 | O=c1oc2cccnc2n1CCN1CCN(c2ccc(Oc3ccccc3)cc2)CC1 | 8.71 µM (inactive) | 35 µM (inactive) | 90.8 | > 100 µM (inactive) | > 100 µM (inactive) | 10.2 µM (inactive) | > 100 µM (inactive) | 8.47 µM (inactive) | 79.6 µM (inactive) |  | 15.7 µM (inactive) | 12.4 µM (inactive) | 7.82 µM (inactive) | > 100 µM (inactive) |  | 19.7 µM (inactive) |  | > 100 µM (inactive) | 34.4 µM (inactive) | 8.04 µM (inactive)
